Measurements: patent US20110184018A1, “METHOD FOR TREATING PERIPHERAL NEUROPATHIC PAIN” (LOHOCLA RESEARCH CORPORATION, priority 2005, published 2011)

Columns and labels:
[1] = Plasma and brain levels after oral administration of DCUK-OEt; type: in vivo; details: rat, 200 mg/kg DCUK-OEt emulsion by oral gavage
Procedure: Oral administration has been the major route of drug administration for the treatment of many diseases. […] Groups of rats were administered 200 mg/kg DCUK-OEt prepared as an emulsion in gelatin:canola oil (50:50) by oral gavage and sacrificed at 0.25, 0.5, 1, 1.5, 2, 4, 6, and 8 hours following administration, in order to collect the blood and brains for analysis. Plasma and brain levels of DCUKA and DCUK-OEt were analyzed by liquid chromatographic separation and mass spectrometric detection. Orally administered DCUK-OEt was converted to DCUKA by plasma and brain carboxylesterases. Peak levels of plasma DCUK-OEt were reached by about 1 hour post-administration, and fell to low levels by about 2 hours. DCUKA plasma levels peaked at about 2 hours and then fell off slowly over the next 4 hours. Brain DCUK-OEt levels peak at about 1 hour post-administration.
Oral administration. Following overnight food deprivation, groups of 3 rats were administered 200 mg/kg DCUK-OEt by oral gavage (40 mg/mL DCUK-OEt at 5 mL/kg body weight). Groups of rats were anesthetized and sacrificed by decapitation at 0.25, 0.5, 1, 1.5, 2, 4, 6, and 8 hours post-administration. Trunk blood was collected into tubes containing K2EDTA anticoagulant and brains were removed, washed thoroughly with 0.9% NaCl, and frozen on dry ice. Blood samples were centrifuged at 4000 rpm for 10 minutes. Plasma supernatant was removed and frozen at −80° C. until the time of the assay.
Liquid chromatographic-mass spectrometric determination of plasma and brain DCUKA and DCUK-OEt levels. Rat plasma sample preparation involved a simple protein precipitation procedure (100 μL plasma+250 μL acetonitrile containing 25 ng/mL of the internal standard, DCUK-OMe). After vortexing (5 minutes) and centrifugation (5000 g, 5 minutes, +4° C.), 200 μL of the supernatant was injected into the HPLC system and loaded onto the extraction column. Frozen brain tissue samples (about 0.5 g) were homogenized over liquid nitrogen using a mortar and pestle. The homogenized powder was transferred into the tubes containing 1.5 mL ice-cold 100% acetonitrile and 25 ng/mL DCUK-OMe (used as an internal standard). Following procedures were all performed on ice or at 4° C. The samples were further homogenized using an electric homogenizer for 30 seconds at 4° C. Subsequently, the tubes were placed into the ultrasonic bath for 30 minutes (on ice), and centrifuged afterwards at 1300 g for 10 minutes at 4° C. The supernatant was transferred into the HPLC tube. The pellet was re-extracted with 500 μL MeOH (containing 25 ng/mL DCUK-OMe), sonicated for 10 minutes, and centrifuged (10 minutes at 1300 g, 4° C.). The MeOH phase was combined with the acetonitrile solution from the first extraction step and 500 μL of the solution was directly injected into the HPLC system.
The two HPLC systems consisted of the following components (all series 1100, Agilent Technologies, Palo Alto, USA): HPLC I: G1312A binary pump, G1379A degasser; HPLC II: G1312A binary pump, and a G1316A column thermostat. A Sciex API 4000 triple-stage quadrupole mass spectrometer was used as detector (Applied Biosystems, Foster City, USA). The HPLC systems were connected via a 6-port column switching valve mounted on a step motor. The HPLC's switching valve and the mass spectrometer were controlled by the Analyst software (version 1.3.1., Applied Biosystems). […]

[2] = target: T1, cannabinoid receptor 1 (CB1) (Homo sapiens, UniProt P21554); experiment: Displacement of [3H]CP55940 from CB1 receptors expressed in HEK293 cells; type: binding; details: [3H]CP55940 displacement, Cheng-Prusoff
T1 construct: expressed in transfected cells; host or cells: HEK293 cells
From the text: The cannabinoid receptor 1 (CB1) is a G-protein coupled receptor (GPCR), which can modulate the enzymatic activity of adenylyl cyclase (AC), inhibit calcium influx into neurons and increase neuronal potassium permeability. The CB1 receptors have been reported to be intimately involved in the progression and control of chronic pain. The CB1 receptors reportedly are involved in both the amelioration of anxiety and depression and may also be important in cognitive function and eating behavior. The interaction of a chemical entity with a CB1 receptor can be measured by the binding of selective radioligands to the native receptor or a CB1 receptor expressed in model cell systems. To ascertain the extent to which a non-radioactive ligand binds to a CB1 receptor the displacement of the radioactive CB1 selective ligand with DCUK-OEt was performed. The methods of assay and calculations for binding constants can be accessed, for example, on the PDSP website (pdsp(dot)med(dot)unc(dot)edu/indexR(dot)html). For binding of DCUK-OEt to the CB1 receptor, the displacement of the CB1 selective radioligand [^3H] CP55940 from CB1 receptors expressed in HEK293 cells was monitored. The log IC50 was determined from the displacement data, and the Ki values for DCUKA and DCUK-OEt were calculated using the Cheng-Prusoff equation.

T1 sequence (P21554 whole entry, species assumed): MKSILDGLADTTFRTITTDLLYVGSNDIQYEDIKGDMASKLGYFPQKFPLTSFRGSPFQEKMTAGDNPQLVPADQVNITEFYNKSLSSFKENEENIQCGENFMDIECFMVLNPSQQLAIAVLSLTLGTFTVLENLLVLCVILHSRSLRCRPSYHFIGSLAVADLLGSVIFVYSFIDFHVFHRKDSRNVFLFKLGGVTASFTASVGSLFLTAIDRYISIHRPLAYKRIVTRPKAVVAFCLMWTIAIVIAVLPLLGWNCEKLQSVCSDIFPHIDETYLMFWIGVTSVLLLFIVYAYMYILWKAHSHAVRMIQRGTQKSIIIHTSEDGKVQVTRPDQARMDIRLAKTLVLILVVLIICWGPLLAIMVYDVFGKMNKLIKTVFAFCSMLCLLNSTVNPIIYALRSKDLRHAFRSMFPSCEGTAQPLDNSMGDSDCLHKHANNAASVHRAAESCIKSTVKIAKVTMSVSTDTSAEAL

Compound	time at which plasma level fell to low levels [1]	time of peak brain level ([1]; analyte = label)	time of peak plasma level ([1]; analyte = label)	Ki [2]	brain level at about 8 hours post-administration ([1]; analyte DCUKA)
CCOC(=O)c1cc(NC(=O)N(c2ccccc2)c2ccccc2)c2c(Cl)cc(Cl)cc2n1 [DCUK-OEt, N,N-diphenyl-4-ureido-5,7-dichloro-2-carboxy quinoline ethyl ester]	about 2 hours	about 1 hour	about 1 hour	7.4 µM	–
O=C(O)c1cc(NC(=O)N(c2ccccc2)c2ccccc2)c2c(Cl)cc(Cl)cc2n1 [DCUKA, N,N-diphenyl-4-ureido-5,7-dichloro-2-carboxyquinoline]	–	–	about 2 hour	> 10 µM	still elevated
